Results published in ChEMBL document CHEMBL1201862, “PubChem BioAssay data set” (2004).
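Compound exposure: 48 hours, 5 concentrations, 96-well plates. At the GI50, growth is halved.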 Active and inactive are the calls of the source. Rule as the data show it: active = GI50 up to about 1.1 µM and inactive = higher.

Key:
Experiment in all cases: NCI-60 cell line screen, 48 h
[1] = system: 786-0
[2] = system: A498
[3] = system: A549
[4] = system: ACHN
[5] = system: BT-549
[6] = system: CAKI-1
[7] = system: CCRF-CEM
[8] = system: COLO 205
[9] = system: DU-145
[10] = system: EKVX
[11] = system: HCC 2998
[12] = system: HCT-116
[13] = system: HCT-15
[14] = system: HL-60
[15] = system: HOP-62
[16] = system: HOP-92
[17] = system: HT-29
[18] = system: Hs-578T
[19] = system: IGROV-1
[20] = system: K562
[21] = system: KM12
[22] = system: LOX IMVI
[23] = system: M14
[24] = system: MCF7
[25] = system: MDA-MB-231
[26] = system: MDA-MB-435
[27] = system: MDA-N
[28] = system: MOLT-4
[29] = system: Malme-3M
[30] = system: NCI-H226
[31] = system: NCI-H23
[32] = system: NCI-H460
[33] = system: NCI-H522
[34] = system: NCI/ADR-RES
[35] = system: OVCAR-3
[36] = system: OVCAR-4
[37] = system: OVCAR-5
[38] = system: OVCAR-8
[39] = system: PC-3
[40] = system: RPMI-8226
[41] = system: RXF 393
[42] = system: SF-268
[43] = system: SF-295
[44] = system: SF-539
[45] = system: SK-MEL-28
[46] = system: SK-MEL-2
[47] = system: SK-MEL-5
[48] = system: SK-OV-3
[49] = system: SN12C
[50] = system: SNB-19
[51] = system: SNB-75
[52] = system: SR
[53] = system: SW-620
[54] = system: T47D
[55] = system: TK-10
[56] = system: U-251
[57] = system: UACC-257
[58] = system: UACC-62
[59] = system: UO-31

SMILES: O=P1(C(O)/C=C/c2ccccc2)N(Cc2ccccc2)[C@H](c2ccccc2)[C@@H](c2ccccc2)N1Cc1ccccc1 (some centres undefined)
- GI50 [1]: 23.7 µM (inactive)
- GI50 [2]: 37.7 µM (inactive)
- GI50 [3]: 6.92 µM (inactive)
- GI50 [4]: 27.4 µM (inactive)
- GI50 [5]: 28.6 µM (inactive)
- GI50 [6]: 17.1 µM (inactive)
- GI50 [7]: 10.5 µM (inactive)
- GI50 [8]: 11.9 µM (inactive)
- GI50 [9]: 38.5 µM (inactive)
- GI50 [10]: 11.7 µM (inactive)
- GI50 [11]: 19.6 µM (inactive)
- GI50 [12]: 8.15 µM (inactive)
- GI50 [13]: 32.1 µM
- GI50 [14]: 6.87 µM (inactive)
- GI50 [15]: 29.8 µM (inactive)
- GI50 [16]: 11 µM (inactive)
- GI50 [17]: 14.2 µM (inactive)
- GI50 [18]: 26.2 µM (inactive)
- GI50 [19]: 2.24 µM (inactive)
- GI50 [20]: 7.85 µM (inactive)
- GI50 [21]: 17 µM (inactive)
- GI50 [22]: 17.5 µM (inactive)
- GI50 [23]: 14.4 µM (inactive)
- GI50 [24]: 12 µM (inactive)
- GI50 [25]: 17.3 µM (inactive)
- GI50 [26]: 19.3 µM (inactive)
- GI50 [27]: 16.5 µM (inactive)
- GI50 [28]: 2.61 µM (inactive)
- GI50 [29]: 27.8 µM (inactive)
- GI50 [30]: 36.6 µM (inactive)
- GI50 [31]: 13.1 µM (inactive)
- GI50 [32]: 15 µM (inactive)
- GI50 [33]: 4.9 µM (inactive)
- GI50 [34]: 26 µM (inactive)
- GI50 [35]: 16.9 µM (inactive)
- GI50 [36]: 13 µM (inactive)
- GI50 [37]: 21.8 µM (inactive)
- GI50 [38]: 10.2 µM (inactive)
- GI50 [39]: 7.55 µM (inactive)
- GI50 [40]: 3.63 µM (inactive)
- GI50 [41]: 21.3 µM (inactive)
- GI50 [42]: 23.8 µM (inactive)
- GI50 [43]: 14 µM (inactive)
- GI50 [44]: > 51.3 µM (inactive)
- GI50 [45]: 35.2 µM (inactive)
- GI50 [46]: 14.1 µM (inactive)
- GI50 [47]: 14.7 µM (inactive)
- GI50 [48]: 22.5 µM (inactive)
- GI50 [49]: 13.6 µM (inactive)
- GI50 [50]: 24.3 µM (inactive)
- GI50 [51]: 19 µM (inactive)
- GI50 [52]: 4.75 µM (inactive)
- GI50 [53]: 26.1 µM (inactive)
- GI50 [54]: 7.13 µM (inactive)
- GI50 [55]: 26 µM (inactive)
- GI50 [56]: 19.9 µM (inactive)
- GI50 [57]: 8.97 µM (inactive)
- GI50 [58]: 11 µM (inactive)
- GI50 [59]: 12.5 µM (inactive)
